In one assay the target is HIV integrase (Human immunodeficiency virus type 1 group M subtype B, UniProt P04585). In words: integrase strand transfer assay (STA). It is filed as biochemical. The conditions noted are these: integrase strand transfer; read-out: IC50 in the STA assay.
A further assay has as its system HXB2 virus. Nature of the assay: microbe, parasite or virus in culture. Type of assay: cell-based, HIV. Particulars: Human immunodeficiency virus 1, HXB2, HeLaP4-2, read-out: antiviral IC50 (SCIA-B). As for the experimental part:
An assay for measuring the inhibition of acute HIV infection with HeLa P4-2 cells in a single cycle infectivity assay (SCIA-A) was conducted in accordance with Joyce, J. G., et al., J. Biol. Chem., 2002, 277, 45811, Hazuda, D. J. et al., Science, 2000, 287, 646, and Kimpton, J. et al, J. Virol. 1992, 66, 2232. Infectious virus was produced by transfecting 293T cells with HIV proviral DNA in which the integrase gene was derived from a IIIB isolate and the remainder of the HIV genome was derived from the NL4-3 isolate.
This assay B for measuring the inhibition of acute HIV infection with HeLa P4-2 cells in a single cycle infectivity assay (SCIA-B) is essentially the same as Assay A described above, except that HXB2 virus is employed instead of the IIIb isolate.

As for `O=c1cc(N2CCC(Cc3ccccc3)CC2)c2cccnc2n1O` [Example 133, 4-(4-benzylpiperidin-1-yl)-1-hydroxy-1,8-naphthyridin-2(1H)-one], the IC50 at HIV integrase is less than 50 µM; with HXB2 virus, less than 100 µM.
In the case of `CCOC(=O)c1c(-c2ccc(-c3ccc(CN)cc3)cc2)c2cccnc2n(O)c1=O` [Example 243, Ethyl 4-[4′-(aminomethyl)biphenyl-4-yl]-1-hydroxy-2-oxo-1,2-dihydro-1,8-naphthyridine-3-carboxylate], the half-inhibitory concentration (IC50) on HIV integrase was less than 50 µM; in the assay with HXB2 virus, less than 100 µM.
Take `O=C(NCc1ccccc1)c1ccc2c(c1)CCN(c1cc(=O)n(O)c3ncccc13)C2` [Example 261, 4-[6-(benzylaminocarbonyl)-3,4-dihydroisoquinolin-2(1H)-yl]-1-hydroxy-1,8-naphthyridin-2(1H)-one]: the IC50 is less than 50 µM at HIV integrase and less than 100 µM with HXB2 virus.
On the same counts, the results for `CCOC(=O)c1cnc2c(c1)c(O)c(C(=O)NCc1ccccc1)c(=O)n2O` [Example 92, Ethyl 6-[(benzylamino)carbonyl]-5,8-dihydroxy-7-oxo-7,8-dihydro-1,8-naphthyridine-3-carboxylate] are less than 50 µM and less than 100 µM.
For the compound `CN(C)C(=O)c1c(O)c2cccnc2n(O)c1=O` [Example 5, 1,4-Dihydroxy-N,N-dimethyl-2-oxo-1,2-dihydro-1,8-naphthyridine-3-carboxamide], the half-maximal inhibitory concentration (IC50) was less than 50 µM at HIV integrase and less than 100 µM in the assay on HXB2 virus.
On the same counts, the results for `O=c1cc(N2CCc3ccc(-c4ccncc4)cc3C2)c2cccnc2n1O` [Example 253, 1-hydroxy-4-(7-pyridin-4-yl-3,4-dihydroisoquinolin-2(1H)-yl)-1,8-naphthyridin-2(1H)-one] are less than 50 µM and less than 100 µM.
On the same counts, the results for `O=C(c1cc(=O)n(O)c2ncccc12)N1CCc2ccccc2C1` [Example 247, 4-(3,4-dihydroisoquinolin-2(1H)-ylcarbonyl)-1-hydroxy-1,8-naphthyridin-2(1H)-one] are less than 50 µM and less than 100 µM.
In the case of `O=c1cc(-c2cn[nH]c2)c2cccnc2n1O` [Example 244, 1-Hydroxy-4-(pyrazol-4-yl)-1,8-naphthyridin-2-(1H)-one], the 50% inhibitory concentration (IC50) at HIV integrase is less than 50 µM; in the assay with HXB2 virus, less than 100 µM.
Consider `CCOC(=O)c1c(O)c2cccnc2n(O)c1=O` [Example 1, Ethyl 1,4-dihydroxy-2-oxo-1,2-dihydro-1,8-naphthyridine-3-carboxylate], for which the IC50 at HIV integrase was less than 50 µM; in the assay with HXB2 virus, less than 100 µM.
On the same counts, the results for `O=C1N[C@H]2CCCC[C@@H]2Nc2c1c(=O)n(O)c1ncccc21` [Example 169, (8aS, 12aS)-5-hydroxy-8,8a,9,10,11,12,12a,13-octahydro-5H-[1,8]naphthyridino[4,3-b][1,5]benzodiazepine-6,7-dione] are less than 50 µM and less than 100 µM.
For `Cc1n[nH]c2c1c(=O)n(O)c1ncccc21` [Example 94, 5-Hydroxy-3-methyl-1,5-dihydro-4H-pyrazolo[4,3-c]-1,8-naphthyridin-4-one], in that order: less than 50 µM and less than 100 µM.
On the same counts, the results for `O=c1cc(-c2ccncc2)c2cccnc2n1O` [Example 203, 1-hydroxy-4-pyridin-4-yl-1,8-naphthyridin-2(1H)-one] are less than 50 µM and less than 100 µM.
As to `O=c1cc(NCc2cccc(F)c2)c2cccnc2n1O` [Example 146, 4-[(3-fluorobenzyl)amino]-1-hydroxy-1,8-naphthyridin-2(1H-one)], the IC50 was less than 50 µM at HIV integrase and less than 100 µM with HXB2 virus.
Turning to `NC1(c2cccc(-c3ccc(-c4cc(=O)n(O)c5ncccc45)cc3)c2)CC1` [Example 238, 4-[3′-(1-aminocyclopropyl)biphenyl-4-yl]-1-hydroxy-1,8-naphthyridin-2(1H)-one], the results for the IC50 on HIV integrase and with HXB2 virus were less than 50 µM and less than 100 µM, respectively.
On the same counts, the results for `CCOC(=O)c1c(O)c2cc(-c3cccnc3)cnc2n(O)c1=O` [Example 58, Ethyl 1,4-dihydroxy-2-oxo-6-pyridin-3-yl-1,2-dihydro-1,8-naphthyridine-3-carboxylate] are less than 50 µM and less than 100 µM.
For `CC(=O)Nc1cc(=O)n(O)c2ncccc12` [Example 100, N-(1-Hydroxy-2-oxo-1,2-dihydro-1,8-naphthyridin-4-yl)acetamide], in that order: less than 50 µM and less than 100 µM.
On the same counts, the results for `COC(=O)CCc1cccc(-c2cccc(-c3cc(=O)n(O)c4ncccc34)c2)c1` [Example 187, methyl-3-[3′-(1-hydroxy-2-oxo-1,2-dihydro-1,8-naphthyridin-4-yl)biphenyl-3-yl]-propanoate] are less than 50 µM and less than 100 µM.
For the compound `COc1ccc(NC(=O)c2c(O)c3cccnc3n(O)c2=O)cn1` [Example 14, 1,4-Dihydroxy-N-(6-methoxypyridine-3-yl)-2-oxo-1,2-dihydro-1,8-naphthyridine-3-carboxamide], the IC50 on HIV integrase was less than 50 µM; in the assay with HXB2 virus it was less than 100 µM.
Turning to `COc1ccc(NC(=O)c2c(O)c3cccnc3n(O)c2=O)cc1` [Example 13, 1,4-Dihydroxy-N-(4-methoxyphenyl)-2-oxo-1,2-dihydro-1,8-naphthyridine-3-carboxamide], the IC50 is less than 50 µM on HIV integrase and less than 100 µM in the assay with HXB2 virus.
For `O=C(Cc1ccccc1)Nc1cc(=O)n(O)c2ncccc12` [Example 101, N-(1-Hydroxy-2-oxo-1,2-dihydro-1,8-naphthyridin-4-yl)-2-phenylacetamide], in that order: less than 50 µM and less than 100 µM.
For `CN1C(=O)c2c(c3cccnc3n(O)c2=O)NC1c1cccc(CN)c1` (centres unmarked) [Example 220, 2-[3-(Aminomethyl)phenyl]-6-hydroxy-3-methyl-2,3-dihydropyrimido[5,4-c]-1,8-naphthyridine-4,5(1H, 6H)dione], in that order: less than 50 µM and less than 100 µM.
With `O=C(c1cccc(-c2cc(=O)n(O)c3ncccc23)c1)N1CCOCC1` [Example 179, 1-hydroxy-4-[3-(morpholin-4-ylcarbonyl)phenyl]-1,8-naphthyridin-2(1H)-one], the 50% inhibitory concentration (IC50) at HIV integrase is less than 50 µM; in the assay on HXB2 virus, less than 100 µM.
Take `O=c1cc(-c2cccc(CN3CCN(Cc4ccccc4)CC3)c2)c2cccnc2n1O` [Example 206, 4-{3-[(4-benzyl-1-piperazinyl)methyl]phenyl}-1-hydroxy-1,8-naphthyridin-2(1H-one)]: the IC50 at HIV integrase is less than 50 µM; with HXB2 virus it was less than 100 µM.
For `CCOC(=O)CN1CCN(c2cc(=O)n(O)c3ncccc23)CC1` [Example 164, ethyl[4-(1-hydroxy-2-oxo-1,2-dihydro-1,8-naphthyridin-4-yl)-1-piperazinyl]acetate], in that order: less than 50 µM and less than 100 µM.
On the same counts, the results for `NCc1cccc(CNC(=O)Cc2c(O)c3cccnc3n(O)c2=O)c1` [Example 224] are less than 50 µM and less than 100 µM.
For `CS(=O)(=O)NCc1ccc(-c2cc(=O)n(O)c3ncccc23)cc1` [Example 189, N-[4-(1-hydroxy-2-oxo-1,2-dihydro-1,8-naphthyridin-4-yl)benzyl]methanesulfo-namide], in that order: less than 50 µM and less than 100 µM.
For the compound `O=c1cc(NCCN2CCOCC2)c2cccnc2n1O` [Example 161], the values for the IC50 on HIV integrase and in the assay with HXB2 virus were less than 50 µM and less than 100 µM, respectively.
For `CCOC(=O)c1c(-c2ccc(CCc3ccncc3)cc2)c2cccnc2n(O)c1=O` [Example 262, Ethyl 4-[4-(2-pyridin-4-ylethyl)phenyl]-hydroxy-2-oxo-1,2-dihydro-1,8-naphthyridin-3-carboxylate], in that order: less than 50 µM and less than 100 µM.
For `CS(=O)(=O)c1cccc(-c2cc(=O)n(O)c3ncccc23)c1` [Example 199, 1-hydroxy-4-[3-(methylsulfonyl)phenyl]-1,8-naphthyridin-2(1H)-one], in that order: less than 50 µM and less than 100 µM.
For `O=c1c(-c2ccccc2)c(O)c2cc(-c3cccs3)cnc2n1O` [Example 75, 6-(thien-2-yl)-1,4-dihydroxy-3-phenyl-1,8-napthyridin-2(1H)-one], in that order: less than 50 µM and less than 100 µM.
In the case of `O=C(NCC1CCNC1)c1c(O)c2cccnc2n(O)c1=O` (centres unmarked) [Example 25, 1,4-Dihydroxy-2-oxo-N-(pyrrolidin-3-ylmethyl)-1,2-dihydro-1,8-naphthyridine-3-carboxamide], the IC50 at HIV integrase was less than 50 µM; in the assay on HXB2 virus, less than 100 µM.
For `CS(=O)(=O)Nc1cccc(-c2cnc3c(c2)c(O)cc(=O)n3O)c1` [Example 69, N-[3-(5,8-Dihydroxy-7-oxo-7,8-dihydro-1,8-naphthyridin-3-yl)phenyl]methane-sulfonamide], the half-inhibitory concentration (IC50) was less than 50 µM on HIV integrase and less than 100 µM with HXB2 virus.
On the same counts, the results for `O=c1cc(-c2ccc3cc[nH]c3c2)c2cccnc2n1O` [Example 186, 1-hydroxy-4-(1H-indol-6-yl)-1,8-naphthyridin-2(1H)-one] are less than 50 µM and less than 100 µM.
For `CN(Cc1ccccc1)c1cc(=O)n(O)c2ncccc12` [Example 130, 4-[benzyl(methyl)amino]-1-hydroxy-1,8-naphthyridin-2(1H)-one], in that order: less than 50 µM and less than 100 µM.

As usually defined, the IC50 is the concentration that inhibits the measured activity by half.

The record behind these values is patent publication US20100056516A1 (priority 2006, published 2010).
